Reference: paper PMC7289955, “The Role of Dopamine in the Stimulant Characteristics of Novel Psychoactive Substances (NPS)—Neurobiological and Computational Assessment Using the Case of Desoxypipradrol (2-DPMP)” (Frontiers in Pharmacology, 2020)

Target: T1, dopamine transporter (DAT) (Rattus norvegicus, UniProt P23977)
T1 construct: gene Slc6a3; native DAT in rat brain sections (nucleus accumbens shell and caudate-putamen)
Test: […]RTI-121 displacement, quantitative autoradiography on rat brain sections

T1 sequence (P23977 whole entry): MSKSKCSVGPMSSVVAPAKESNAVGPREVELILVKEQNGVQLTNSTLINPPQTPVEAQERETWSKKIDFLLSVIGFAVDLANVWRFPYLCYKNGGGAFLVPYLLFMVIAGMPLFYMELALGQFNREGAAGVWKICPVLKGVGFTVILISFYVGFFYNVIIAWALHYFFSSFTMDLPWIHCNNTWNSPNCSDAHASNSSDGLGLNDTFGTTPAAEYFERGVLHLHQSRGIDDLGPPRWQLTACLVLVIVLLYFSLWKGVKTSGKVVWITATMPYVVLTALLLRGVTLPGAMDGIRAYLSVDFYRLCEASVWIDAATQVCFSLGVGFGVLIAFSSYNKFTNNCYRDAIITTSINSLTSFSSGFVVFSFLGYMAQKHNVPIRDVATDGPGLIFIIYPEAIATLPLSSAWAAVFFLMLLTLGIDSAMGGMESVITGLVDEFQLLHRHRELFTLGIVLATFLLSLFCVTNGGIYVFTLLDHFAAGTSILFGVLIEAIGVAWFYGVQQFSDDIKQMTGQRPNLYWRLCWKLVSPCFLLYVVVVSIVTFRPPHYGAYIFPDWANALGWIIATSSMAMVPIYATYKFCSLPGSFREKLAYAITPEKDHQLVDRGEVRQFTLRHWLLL

With `c1ccc(C(c2ccccc2)C2CCCCN2)cc1` (stereo not shown) [2-DPMP, 2-diphenylmethylpiperidine] the IC50 was 565 nM.
